According to US20250381289A1, “EGFR AND C-MET BISPECIFIC BINDING AGENTS, CONJUGATES THEREOF AND METHODS OF USING THE SAME” (GENMAB A/S, priority 2024, published 2025):

Test system: EGFR and cMET co-expressed tumor cell lines (A431, A549, MDA-MB-468, MKN-45, NCI-H441, NCI-H1975)
Experiment: Binding activity of parent mAbs by flow cytometry
Conditions: flow cytometry on tumor cell lines, FIGS. 1A-1F, Table 5; compared with zalutumumab (zalu) or cetuximab
Experimental: EGFR and cMET co-expressed tumor cell lines including A431 (ATCC® CRL-1555), A549 (ATCC® CCL-185, Provided by Procell), MDA-MB-468 (ATCC® HTB-132, Provided by Procell), MKN-45 (CL-0292, Provided by Procell), NCI-H441 (ATCC® HTB-174, Provided by COBIOER), NCI-H1975 (ATCC® CRL-5908, Provided by Procell) were selected for evaluating antibody binding activity by flow cytometry.
A431 was cultured with DMEM medium (Gibco, Cat #C11995500BT) containing 10% FBS. MDA-MB-468, MKN-45, NCI-H441 and NCI-H1975 were cultured with RPMI 1640 medium (Gibco, Cat #11875093) containing 10% FBS. A549 was cultured with F12K medium (Gibco, Cat #21127030) containing 10% FBS. Each antibody was incubated with different cell lines (1×10^5 cells/well) for 30 min in 0.2 mL FACS buffer (1×PBS with 0.1% BSA) at 4° C. After wash, cells were incubated with 100 μL PE-conjugated anti human Fc (Abcam, Ab98596, 1:500 dilution) for 30 min at 4° C. After wash with PBS, cells were resuspended in FACS buffer and analyzed by flow cytometer (Beckman, CytoFLEX).

Nimotuzumab: parent EGFR mAb; sequences in Table 2 [reference compound]
binding activity / affinity of parent EGFR mAbs (summary): Lower affinity than zalutumumab, no significant

Nectitumumab: parent EGFR mAb; sequences in Table 2 as Necitumumab [reference compound]
binding activity / affinity of parent EGFR mAbs (summary): Stronger affinity than zalu,

Panitumumab: parent EGFR mAb; sequences in Table 2 [reference compound]
binding activity / affinity of parent EGFR mAbs (summary): Stronger affinity than cetuximab, binding remains
